test system: P. gingivalis adherence to S. gordonii; experiment: Biofilm model of P. gingivalis adherence to S. gordonii (confocal, green/red fluorescence ratio); format: cell-based, P. gingivalis ATCC33277 / S. gordonii DL-1; conditions: inhibition of P. gingivalis adherence to S. gordonii; concentration that reduced ratio of green to red fluorescence by 50%; tested 0–60 μM
Protocol: P. gingivalis ATCC33277 was grown in reduced trypticase soy broth (Difco) supplemented with 0.5 percent yeast extract, 1 μg mL^–1 menadione, and 5 μg mL^–1 hemin. Twenty five milliliters of medium were reduced for 24 h under anaerobic conditions by equilibrating in an atmosphere consisting of 10% CO2, 10% H2, and 80% N2. Following equilibration, P. gingivalis was inoculated in the medium and grown for 48 h at 37 °C under anaerobic conditions. S. gordonii DL-1 (1) was cultured aerobically without shaking in brain heart infusion (BHI) broth supplemented with 1 percent yeast extract for 16 hours at 37 °C. For some compounds that inhibited P. gingivalis adherence to S. gordonii, we determined their effect on planktonic growth of P. gingivalis and S. gordonii. The appropriate growth medium (10 ml) was supplemented with 10 μl of a 40 mM compound stock solution in DMSO. After inoculation, broth cultures were incubated as described above and compared to cultures grown in medium that was supplemented only with 0.1% DMSO. The cell density of each culture was determined by measuring the optical density at 600 nm (O.D.600nm) and the percent growth inhibition/stimulation was calculated using the following equation: [(O.D.600nm of the control/O.D.600nm of the culture grown in the presence of compound) – 1] × 100.
Two species biofilms were formed essentially as previously described.[39] To prepare bacterial cells for biofilm culture, 10 ml of an overnight S. gordonii culture was centrifuged at 5600 rpm for 5 min and the cell pellet was suspended in 1 mL sterile PBS. Subsequently, 20 μL of 5 mg ml^–1 hexidium iodide (Molecular Probes) was added to the cell suspension and incubated for 15 min with gentle shaking at room temperature in the dark. The labeled cells were centrifuged as described above, washed with phosphate-buffered saline (10 mM Na2HPO4, […], […], and 2.7 mM KCl, pH 7.2; [PBS]) and the cell pellet was suspended in PBS at a final O.D.600nm of 0.8. Similarly, 10 mL of a 48 h culture of P. gingivalis was centrifuged at 5600 rpm for 15 min, the cell pellet was suspended in 1 mL PBS and 20 μL of 5(6)-carboxyfluorescein N-hydroxysuccinimide ester (4 mg ml^–1, Molecular Probes, Inc.) was added. After incubation for 30 min with gentle shaking at room temperature in the dark, the suspension was centrifuged and washed as described above and suspended in PBS at a final O.D.600nm of 0.4. For biofilm cultures, 1 mL of labeled S. gordonii cells was added to each well of a 12-well microtiter plate (Greiner Bio-one) containing a circular coverslip (Fisher brand) and incubated in an anaerobic chamber with rotary shaking for 24 h at 37 °C. Unbound cells were removed by aspiration and 1 ml of labeled P. gingivalis cells containing the desired concentration of test compound was added and incubated under anaerobic conditions for 22 h at 37 °C. Test compounds were dissolved in dimethyl sulfoxide (DMSO) to generate 1000× stock solutions and were routinely tested over a final concentration range of 0–60 μM. 1 μL of the appropriate stock solution was added to each 1 mL aliquot of labeled P. gingivalis cells and incubated for 30 min at room temperature prior to adding the suspension to the microtiter plate wells. For control biofilms, 1 μL of DMSO was added to 1 mL of labeled P. gingivalis and incubated as described above.
To visualize P. gingivalis/S. gordonii biofilms, unbound P. gingivalis cells were removed by aspiration and coverslips were washed once with PBS. Biofilms were fixed by incubating the coverslips with 1 mL of 4% paraformaldehyde for 5 min followed by two washes with PBS. The coverslips were then removed, placed face down on a glass microscope slide containing a drop of antifade reagent (Life Technology) and sealed with nail polish. […]

Compound | IC50
CCN(CC)c1nc(-c2cn(-c3ccc(-c4nc(-c5ccccc5)c(-c5ccccc5)o4)cc3)nn2)nc(N(CC)CC)n1 [Compound 91] | > 60 µM
Fc1ccccc1Nc1nc(Nc2ccccc2F)nc(-c2cn(-c3cccc(-c4nc(-c5ccco5)c(-c5ccco5)o4)c3)nn2)n1 [Compound 108] | > 60 µM
[O-][S+](Cc1nc(-c2ccc(F)cc2)c(-c2ccc(F)cc2)o1)c1ccc(-n2cc(-c3ccc(F)cc3)nn2)cc1 (stereo not drawn) [Compound 47] | 35.9 µM
[O-][S+](Cc1nc(-c2ccc(F)cc2)c(-c2ccc(F)cc2)o1)c1ccc(-n2cc(-c3cccc(F)c3)nn2)cc1 (stereo not drawn) [Compound 46] | 5.3 µM
COc1ccccc1-c1cn(-c2ccc([S+]([O-])Cc3nc(-c4ccc(Cl)cc4)c(-c4ccc(Cl)cc4)o3)cc2)nn1 (stereo not drawn) [Compound 51] | 10.2 µM
COc1ccccc1-c1cn(-c2ccc([S+]([O-])Cc3nc(-c4ccccc4)c(-c4ccccc4)o3)cc2)nn1 (stereo not drawn) [Compound 31] | > 60 µM
Fc1ccccc1Nc1nc(Nc2ccccc2F)nc(-c2cn(-c3ccc(-c4nc(-c5ccccc5)c(-c5ccccc5)o4)cc3)nn2)n1 [Compound 101] | > 60 µM
CCN(CC)c1nc(-c2cn(-c3cccc(-c4nc(-c5ccco5)c(-c5ccco5)o4)c3)nn2)nc(N(CC)CC)n1 [Compound 98] | > 60 µM
Fc1ccc(Nc2nc(Nc3ccc(F)cc3)nc(-c3cn(-c4ccccc4-c4nc(-c5ccccc5)c(-c5ccccc5)o4)nn3)n2)cc1 [Compound 110] | > 60 µM
COc1ccc(-c2nc(-c3ccccc3-n3cc(-c4nc(Nc5ccc(F)cc5)nc(Nc5ccc(F)cc5)n4)nn3)oc2-c2ccc(OC)cc2)cc1 [Compound 119] | > 60 µM
COc1ccc(-c2nc(-c3ccc(-n4cc(-c5nc(Nc6ccc(F)cc6)nc(Nc6ccc(F)cc6)n5)nn4)cc3)oc2-c2ccc(OC)cc2)cc1 [Compound 121] | > 60 µM
COc1ccc2cc(-c3cn(-c4ccc(S(=O)(=O)Cc5nc(-c6ccccc6)c(-c6ccccc6)o5)cc4)nn3)ccc2c1 [Compound 42] | > 60 µM
Fc1ccc(Nc2nc(Nc3ccc(F)cc3)nc(-c3cn(-c4ccccc4-c4nc(-c5ccc(F)cc5)c(-c5ccc(F)cc5)o4)nn3)n2)cc1 [Compound 113] | 49.2 µM
CCN(CC)c1nc(-c2cn(-c3ccc(-c4nc(-c5ccc(OC)cc5)c(-c5ccc(OC)cc5)o4)cc3)nn2)nc(N(CC)CC)n1 [Compound 97] | 36.6 µM
Fc1ccc(Nc2nc(Nc3ccc(F)cc3)nc(-c3cn(-c4ccc(-c5nc(-c6ccccc6)c(-c6ccccc6)o5)cc4)nn3)n2)cc1 [Compound 112] | > 60 µM
Fc1ccccc1Nc1nc(Nc2ccccc2F)nc(-c2cn(-c3ccc(-c4nc(-c5ccc(Cl)cc5)c(-c5ccc(Cl)cc5)o4)cc3)nn2)n1 [Compound 105] | > 60 µM
O=S(=O)(Cc1nc(-c2ccccc2)c(-c2ccccc2)o1)c1ccc(-n2cc(-c3ccccc3C(F)(F)F)nn2)cc1 [Compound 41] | > 60 µM
O=S(=O)(Cc1nc(-c2ccccc2)c(-c2ccccc2)o1)c1ccc(-n2cc(-c3ccc(F)cc3)nn2)cc1 [Compound 38] | 15.7 µM
[O-][S+](Cc1nc(-c2ccc(Cl)cc2)c(-c2ccc(Cl)cc2)o1)c1ccc(-n2cc(-c3ccc(F)cc3)nn2)cc1 (stereo not drawn) [Compound 50] | 39.8 µM
O=S(=O)(Cc1nc(-c2ccccc2)c(-c2ccccc2)o1)c1ccc(-n2cc(-c3cccc(F)c3)nn2)cc1 [Compound 39] | 33.6 µM
[O-][S+](Cc1nc(-c2ccccc2)c(-c2ccccc2)o1)c1ccc(-n2cc(-c3ccc(Oc4ccccc4)cc3)nn2)cc1 (stereo not drawn) [Compound 35] | > 60 µM
CCN(CC)c1nc(-c2cn(-c3cccc(-c4nc(-c5ccc(Cl)cc5)c(-c5ccc(Cl)cc5)o4)c3)nn2)nc(N(CC)CC)n1 [Compound 94] | 16 µM
O=S(=O)(Cc1nc(-c2ccc(Cl)cc2)c(-c2ccc(Cl)cc2)o1)c1ccc(-n2cc(-c3cccc(F)c3)nn2)cc1 [Compound 55] | 18.2 µM

Compound | IC50
O=S(=O)(Cc1nc(-c2ccc(F)cc2)c(-c2ccc(F)cc2)o1)c1ccc(-n2cc(-c3cccc(F)c3)nn2)cc1 [Compound 52] | 40 µM
COc1ccccc1-c1cn(-c2ccc([S+]([O-])Cc3nc(-c4ccc(F)cc4)c(-c4ccc(F)cc4)o3)cc2)nn1 (stereo not drawn) [Compound 48] | 7.2 µM
COc1ccc(-c2nc(-c3ccc(-n4cc(-c5nc(Nc6ccccc6F)nc(Nc6ccccc6F)n5)nn4)cc3)oc2-c2ccc(OC)cc2)cc1 [Compound 107] | 40 µM
Fc1ccc(Nc2nc(Nc3ccc(F)cc3)nc(-c3cn(-c4cccc(-c5nc(-c6ccco6)c(-c6ccco6)o5)c4)nn3)n2)cc1 [Compound 123] | 8 µM
[O-][S+](Cc1nc(-c2ccccc2)c(-c2ccccc2)o1)c1ccc(-n2cc(-c3ccc(F)cc3)nn2)cc1 (stereo not drawn) [Compound 29] | > 60 µM
CCN(CC)c1nc(-c2cn(-c3ccc(-c4nc(-c5ccco5)c(-c5ccco5)o4)cc3)nn2)nc(N(CC)CC)n1 [Compound 99] | > 60 µM
[O-][S+](Cc1nc(-c2ccccc2)c(-c2ccccc2)o1)c1ccc(-n2cc(-c3ccccc3C(F)(F)F)nn2)cc1 (stereo not drawn) [Compound 32] | > 60 µM
[O-][S+](Cc1nc(-c2ccc(Cl)cc2)c(-c2ccc(Cl)cc2)o1)c1ccc(-n2cc(-c3cccc(F)c3)nn2)cc1 (stereo not drawn) [Compound 49] | 15.1 µM
Fc1ccc(Nc2nc(Nc3ccc(F)cc3)nc(-c3cn(-c4cccc(-c5nc(-c6ccc(Cl)cc6)c(-c6ccc(Cl)cc6)o5)c4)nn3)n2)cc1 [Compound 117] | 27.8 µM
Fc1ccc(Nc2nc(Nc3ccc(F)cc3)nc(-c3cn(-c4cccc(-c5nc(-c6ccc(F)cc6)c(-c6ccc(F)cc6)o5)c4)nn3)n2)cc1 [Compound 114] | > 60 µM
O=S(=O)(Cc1nc(-c2ccccc2)c(-c2ccccc2)o1)c1ccc(-n2cc(-c3ccc(Oc4ccccc4)cc3)nn2)cc1 [Compound 44] | 16.5 µM
COc1ccc(-c2nc(-c3cccc(-n4cc(-c5nc(Nc6ccc(F)cc6)nc(Nc6ccc(F)cc6)n5)nn4)c3)oc2-c2ccc(OC)cc2)cc1 [Compound 120] | > 60 µM
[O-][S+](Cc1nc(-c2ccccc2)c(-c2ccccc2)o1)c1ccc(-n2cc(-c3cccnc3)nn2)cc1 (stereo not drawn) [Compound 28, 4,5-Diphenyl-2-(((4-(4-(pyridin-3-yl)-1H-1,2,3-triazol-1-yl)phenyl)sulfinyl)methyl) oxazole] | > 60 µM
CCN(CC)c1nc(-c2cn(-c3cccc(-c4nc(-c5ccc(F)cc5)c(-c5ccc(F)cc5)o4)c3)nn2)nc(N(CC)CC)n1 [Compound 92] | > 60 µM
[O-][S+](Cc1nc(-c2ccccc2)c(-c2ccccc2)o1)c1ccc(-n2cc(-c3cccc(F)c3)nn2)cc1 (stereo not drawn) [Compound 30] | 47.3 µM
[O-][S+](Cc1nc(-c2ccccc2)c(-c2ccccc2)o1)c1ccc(-n2cc(-c3cc(C(F)(F)F)cc(C(F)(F)F)c3)nn2)cc1 (stereo not drawn) [Compound 36] | > 60 µM
CCCCCc1ccc(-c2cn(-c3ccc([S+]([O-])Cc4nc(-c5ccccc5)c(-c5ccccc5)o4)cc3)nn2)cc1 (stereo not drawn) [Compound 34] | > 60 µM
COc1ccccc1-c1cn(-c2ccc(S(=O)(=O)Cc3nc(-c4ccccc4)c(-c4ccccc4)o3)cc2)nn1 [Compound 40] | 13.1 µM
O=S(=O)(Cc1nc(-c2ccccc2)c(-c2ccccc2)o1)c1ccc(-n2cc(-c3cccnc3)nn2)cc1 [Compound 37] | > 60 µM
O=S(=O)(Cc1nc(-c2ccc(F)cc2)c(-c2ccc(F)cc2)o1)c1ccc(-n2cc(-c3ccc(F)cc3)nn2)cc1 [Compound 53] | 40 µM
COc1ccc(-c2nc(-c3cccc(-n4cc(-c5nc(Nc6ccccc6F)nc(Nc6ccccc6F)n5)nn4)c3)oc2-c2ccc(OC)cc2)cc1 [Compound 106] | > 60 µM
CCN(CC)c1nc(-c2cn(-c3cccc(-c4nc(-c5ccccc5)c(-c5ccccc5)o4)c3)nn2)nc(N(CC)CC)n1 [Compound 90] | 20.7 µM

— publication PMC6390472, “‘Second-generation’ 1,2,3-triazole-based inhibitors of Porphyromonas gingivalis adherence to oral streptococci and biofilm formation” (MedChemComm, 2019)
